Like-named read-outs stand apart in the source and are kept apart here. Positions of bridges follow the written chain, without caps; N, C: chain ends. Non-standard residues stand in square brackets, D forms with d. Residues, ends and D or L forms follow the SMILES beside them. *: point of attachment. Dap(Nα-HOOC(CH2)16CO)OH = O=C(O)CCCCCCCCCCCCCCCCC(=O)N[C@@H](CN*)C(=O)O; X6 = O=C(O)CCCCCCCCCCCCCCCCC(=O)N[C@@H](CCC(=O)NCCCOCCOCCOCCCN*)C(=O)O; X11 = O=C(O)CCCCCCCCCCCCC(=O)N[C@@H](CCC(=O)NCCCOCCOCCOCCCN*)C(=O)O; Trp(1-CH2COOH) = N[C@@H](Cc1cn(CC(=O)O)c2ccccc12)C(=O)O; X3 = NC(=O)[C@H](CC(=O)O)NC(=O)CCC(=O)NCCCOCCOCCOCCCN*; Phe(3,4,5-F3) = N[C@@H](Cc1cc(F)c(F)c(F)c1)C(=O)O; NH(CH2)14COOH = O=C(O)CCCCCCCCCCCCCCN*; d(cisHyp) = O=C(O)[C@H]1C[C@@H](O)CN1; NH(CH2)12COOH = O=C(O)CCCCCCCCCCCCN*; PEG6 = NCCOCCOCCOCCOCCOCCOCCC(=O)O; Hyp = O=C(O)[C@@H]1C[C@@H](O)CN1; NMeF = CN[C@@H](Cc1ccccc1)C(=O)O; NMeNle = CCCC[C@H](NC)C(=O)O; dPip = O=C(O)[C@H]1CCCCN1; NMeA = CN[C@@H](C)C(=O)O; Dab = NCC[C@H](N)C(=O)O; Dap = NC[C@H](N)C(=O)O
Target: T1, PD-L1 (Homo sapiens, UniProt Q9NZQ7)
T1 construct: hPDL1(19-239)-TVMV-His; made in house; host or cells: HEK293T
Assay: PD-1/PD-L1 Homogenous Time-Resolved Fluorescence (HTRF) binding assay (PD-1-Ig/PD-L1-His)
Method in brief: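 Inhibitors pre-incubated 15 min with PD-L1-His (10 nM final), then PD-1-Ig (20 nM final) added for 15 min in dPBS/0.1% BSA/0.05% Tween-20. Eu-cryptate anti-Ig (1 nM) and APC anti-His (20 nM) added, 30 min equilibration, 665/620 nm HTRF ratio read.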

[1] = inhibition of PD-1-Ig binding to PD-L1-TVMV-His, value given as range class, read-out: HTRF IC50

T1 sequence (Q9NZQ7 with tags, fused parts or gaps): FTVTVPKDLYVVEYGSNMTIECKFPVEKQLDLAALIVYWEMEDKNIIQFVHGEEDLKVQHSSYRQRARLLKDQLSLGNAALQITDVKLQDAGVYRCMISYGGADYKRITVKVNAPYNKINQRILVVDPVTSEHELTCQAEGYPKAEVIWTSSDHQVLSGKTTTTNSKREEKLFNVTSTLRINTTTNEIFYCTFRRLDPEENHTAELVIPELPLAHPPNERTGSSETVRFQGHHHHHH

SMILES	IC50 [1] [nM]	IC50 [nM]
CCCC[C@H]1C(=O)N(C)[C@@H](CCCC)C(=O)N[C@@H](CC(C)C)C(=O)N[C@H](C(=O)NCC(=O)NCCCOCCOCCOCCCNC(=O)CC[C@H](NC(=O)CCCCCCCCCCCCC(=O)O)C(=O)O)CSCC(=O)N[C@@H](Cc2ccc(O)cc2)C(=O)N(C)[C@@H](C)C(=O)N[C@@H](CC(N)=O)C(=O)N2CCC[C@H]2C(=O)N[C@@H](CN)C(=O)N[C@@H](CC(C)C)C(=O)N2C[C@H](O)C[C@H]2C(=O)N[C@@H](Cc2c[nH]c3ccccc23)C(=O)N[C@@H](CCN)C(=O)N[C@@H](Cc2cn(CC(=O)O)c3ccccc23)C(=O)N1C [Example 11260] ({CH2CO}-Y[NMeA]NP[Dap]L[Hyp]W[Dab][Trp(1-CH2COOH)][NMeNle][NMeNle]LCG-X11; thioether N-14)	0.3 to 9.9	–
CCCC[C@H]1C(=O)N(C)[C@@H](CCCC)C(=O)N[C@@H](CC(C)C)C(=O)N[C@H](C(=O)N[C@@H](CC(=O)O)C(=O)N[C@@H](CC(=O)NCCCOCCOCCOCCCNC(=O)CC[C@H](NC(=O)CCCCCCCCCCCCCCCCC(=O)O)C(=O)O)C(=O)O)CSCC(=O)N[C@@H](Cc2ccc(O)cc2)C(=O)N(C)[C@@H](C)C(=O)N[C@@H](CC(N)=O)C(=O)N2CCC[C@H]2C(=O)N[C@@H](CN)C(=O)N[C@@H](CC(C)C)C(=O)N2C[C@H](O)C[C@H]2C(=O)N[C@@H](Cc2c[nH]c3ccccc23)C(=O)N[C@@H](CCN)C(=O)N[C@@H](Cc2cn(CC(=O)O)c3ccccc23)C(=O)N1C [Example 11227] ({CH2CO}-Y[NMeA]NP[Dap]L[Hyp]W[Dab][Trp(1-CH2COOH)][NMeNle][NMeNle]LCDD(X6)-OH; thioether N-14)	0.3 to 9.9	–
CCCC[C@H]1C(=O)N(C)[C@@H](CCCC)C(=O)N[C@@H](CC(C)C)C(=O)N[C@H](C(=O)NCC(=O)N[C@@H](CCC(=O)NCCCOCCOCCOCCCNC(=O)CC[C@H](NC(=O)CCCCCCCCCCCCCCCCC(=O)O)C(=O)O)C(=O)O)CSCC(=O)N[C@@H](Cc2ccc(O)cc2)C(=O)N(C)[C@@H](C)C(=O)N[C@@H](CC(N)=O)C(=O)N2CCC[C@H]2C(=O)N[C@@H](CN)C(=O)N[C@@H](CC(C)C)C(=O)N2C[C@H](O)C[C@@H]2C(=O)N[C@@H](Cc2c[nH]c3ccccc23)C(=O)N[C@@H](CCN)C(=O)N[C@@H](Cc2cn(CC(=O)O)c3ccccc23)C(=O)N1C [Example 11163] ({CH2CO}-Y[NMeA]NP[Dap]L[d(cisHyp)]W[Dab][Trp(1-CH2COOH)][NMeNle][NMeNle]LCGE(X6)-OH; thioether N-14)	0.3 to 9.9	–
CCCC[C@H]1C(=O)N(C)[C@@H](CCCC)C(=O)N[C@@H](CCC(=O)O)C(=O)N[C@H](C(=O)NCC(=O)N[C@@H](Cc2cn(CCOCCOCCOCCOCCOCCOC(=O)CCC(=O)Oc3c(C)c(C)c4c(c3C)CC[C@@](C)(CCC[C@H](C)CCC[C@H](C)CCCC(C)C)O4)nn2)C(=O)NCC(N)=O)CSCC(=O)N[C@@H](Cc2ccc(O)cc2)C(=O)N(C)[C@@H](C)C(=O)N[C@@H](CC(=O)O)C(=O)N2CCC[C@H]2C(=O)N[C@@H](Cc2c[nH]cn2)C(=O)N[C@@H](CCCCN)C(=O)N2C[C@H](O)C[C@H]2C(=O)N[C@@H](Cc2c[nH]c3ccccc23)C(=O)N[C@@H](CCCCN)C(=O)N[C@@H](Cc2c[nH]c3ccccc23)C(=O)N1C [Example 14053]	–	100 to 1600
CCCC[C@H]1C(=O)N2C[C@H](O)C[C@@H]2C(=O)N[C@@H](CC(=O)O)C(=O)N[C@@H](C(C)C)C(=O)N(C)[C@@H](Cc2ccccc2)C(=O)N[C@@H](Cc2ccc(O)cc2)C(=O)N2CCCC[C@@H]2C(=O)N[C@@H](Cc2c[nH]c3ccccc23)C(=O)N[C@@H](Cc2ccc(O)cc2)C(=O)N[C@@H](CC(C)C)C(=O)N[C@H](C(=O)NCC(=O)NCC(=O)NCC(=O)N[C@@H](CCCCN)C(N)=O)CSCC(=O)N[C@@H](Cc2cc(F)c(F)c(F)c2)C(=O)N(C)[C@@H](Cc2ccccc2)C(=O)N1C [Example 3623] ({CH2CO}-[Phe(3,4,5-F3)][NMeF][NMeNle][d(cisHyp)]DV[NMeF]Y[dPip]WYLCGGGK-NH2; thioether N-13)	0.3 to 9.9	–
CCCC[C@H]1C(=O)N(C)[C@@H](CCCC)C(=O)N[C@@H](CC(C)C)C(=O)N[C@H](C(=O)NCCOCCOCCOCCOCCOCCOCCC(=O)NC[C@H](NC(=O)CCCCCCCCCCCCCCCCC(=O)O)C(=O)O)CSCC(=O)N[C@@H](Cc2ccc(O)cc2)C(=O)N(C)[C@@H](C)C(=O)N[C@@H](CC(N)=O)C(=O)N2CCC[C@H]2C(=O)N[C@@H](CN)C(=O)N[C@@H](CC(C)C)C(=O)N2C[C@H](O)C[C@H]2C(=O)N[C@@H](Cc2c[nH]c3ccccc23)C(=O)N[C@@H](CCN)C(=O)N[C@@H](Cc2cn(CC(=O)O)c3ccccc23)C(=O)N1C [Example 11180] ({CH2CO}-Y[NMeA]NP[Dap]L[Hyp]W[Dab][Trp(1-CH2COOH)][NMeNle][NMeNle]LC[PEG6]-{Dap(Nα-HOOC(CH2)16CO)OH}; thioether N-14)	10 to 99	–
CCCC[C@H]1C(=O)N(C)[C@@H](CCCC)C(=O)N[C@@H](CC(C)C)C(=O)N[C@H](C(=O)NCC(=O)N[C@@H](CC(=O)O)C(=O)NCCCCCCCCCCCCC(=O)O)CSCC(=O)N[C@@H](Cc2ccc(O)cc2)C(=O)N(C)[C@@H](C)C(=O)N[C@@H](CC(=O)O)C(=O)N2CCC[C@H]2C(=O)N[C@@H](Cc2cnc[nH]2)C(=O)N[C@@H](CCCCN)C(=O)N2C[C@H](O)C[C@H]2C(=O)N[C@@H](Cc2c[nH]c3ccccc23)C(=O)N[C@@H](CCCCN)C(=O)N[C@@H](Cc2cn(CC(=O)O)c3ccccc23)C(=O)N1C [Example 11213] ({CH2CO}-Y[NMeA]DPHK[Hyp]WK[Trp(1-CH2COOH)][NMeNle][NMeNle]LCGD-{NH(CH2)12COOH}; thioether N-14)	10 to 99	–
CCCC[C@H]1C(=O)N(C)[C@@H](CCCC)C(=O)N[C@@H](CC(C)C)C(=O)N[C@H](C(=O)NCC(=O)NCC(=O)NCCCCCCCCCCCCCCC(=O)O)CSCC(=O)N[C@@H](Cc2ccc(O)cc2)C(=O)N(C)[C@@H](C)C(=O)N[C@@H](CC(N)=O)C(=O)N2CCC[C@H]2C(=O)N[C@@H](CN)C(=O)N[C@@H](CC(C)C)C(=O)N2C[C@H](O)C[C@H]2C(=O)N[C@@H](Cc2c[nH]c3ccccc23)C(=O)N[C@@H](CCN)C(=O)N[C@@H](Cc2cn(CC(=O)O)c3ccccc23)C(=O)N1C [Example 11194] ({CH2CO}-Y[NMeA]NP[Dap]L[Hyp]W[Dab][Trp(1-CH2COOH)][NMeNle][NMeNle]LCGG-{NH(CH2)14COOH}; thioether N-14)	10 to 99	–
CCCC[C@H]1C(=O)N(C)[C@@H](CCCC)C(=O)N[C@@H](CC(C)C)C(=O)N[C@H](C(=O)NCCCOCCOCCOCCCNC(=O)CCC(=O)N[C@@H](CC(=O)O)C(N)=O)CSCC(=O)N[C@@H](Cc2ccc(O)cc2)C(=O)N(C)[C@@H](C)C(=O)N[C@@H](CC(N)=O)C(=O)N2CCC[C@H]2C(=O)N[C@@H](Cc2cnc[nH]2)C(=O)N[C@@H](CCC(=O)O)C(=O)N2C[C@H](O)C[C@H]2C(=O)N[C@@H](Cc2c[nH]c3ccccc23)C(=O)N[C@@H](CCN)C(=O)N[C@@H](Cc2cn(CC(=O)O)c3ccccc23)C(=O)N1C [Example 11067] ({CH2CO}-Y[NMeA]NPHE[Hyp]W[Dab][Trp(1-CH2COOH)][NMeNle][NMeNle]LC-X3; thioether N-14)	10 to 99	–
